Here are results for nine molecules from patent US9662318B2, “Bitopic muscarinic agonists and antagonists and methods of synthesis and use thereof” (BARRY UNIVERSITY, INC., priority 2012, dated 2017).

Experiment [1] relates to M1-M5 muscarinic receptors. Put plainly: Accumulation of inositol phosphates, statements over all subtypes. Type of experiment: cell-based, human. The following applies: for functional selectivity of antagonism: from shifts in carbachol EC50, Table 6; for basal functional response (in the absence of carbachol): 0.1 mM, at all receptor subtypes. The procedure: Antagonism of tested compounds was determined at single high concentration of 0.1 mM.

The target in experiment [2] is T1, M3 muscarinic receptor (Homo sapiens, UniProt P20309).
T1 construct: host or cells: Chinese hamster ovary cells
Put plainly: Accumulation of inositol phosphates in CHO cells. Type of experiment: cell-based. The following applies: ligand 0.1 mM, no carbachol.
Procedure: (§3) Chinese hamster ovary cells stably transfected with the genes of human variants of muscarinic receptors were purchased from Missouri S&T cDNA Resource Center (Rolla, Mo., USA). […] Cells were grown to confluency in 75 cm^2 flasks in Dulbecco's modified Eagle's medium supplemented with 10% fetal bovine serum and 2 million of cells were subcultured to 100 mm Petri dishes. Medium was supplemented with 5 mM butyrate for the last 24 hours of cultivation to increase receptor expression.
(§4) Inositolphosphates formation was determined in cells pre-labeled overnight by 0.5 μM [^3H]myo-inositol in 0.3 mL of DMEM (3 μCi/ml) at 37° C. […] Incubation was stopped by removal of incubation buffer and addition 0.2 mL 20% trichloracetic acid (TCA). After 1 h incubation at 4° C., 100 μL, of TCA extracts were taken for measurement. Rest of the TCA was removed, and TCA precipitates were washed with 200 μL TCA and dissolved in 200 μL of 1 M NaOH. After 1 h incubation at 4° C., 100 μL, of NaOH lysates were taken for measurement. Radioactivity in TCA extracts and NaOH lysates were determined by liquid scintillation counting. The rate of inositolphosphates accumulation was calculated as a percentage of the soluble (released) inositolphosphates from the total incorporated radioactivity (sum of radioactivity in NaOH lysates and TCA extracts).
(§5) EC50 values are expressed as negative logarithms and EMAX values as folds over basal, Table 7.

Experiment [3] addresses T2, M5 muscarinic receptor (Homo sapiens, UniProt P08912).
T2 construct: host or cells: CHO (Chinese hamster ovary) cells, stably transfected
T2 sequence (P08912 1-532): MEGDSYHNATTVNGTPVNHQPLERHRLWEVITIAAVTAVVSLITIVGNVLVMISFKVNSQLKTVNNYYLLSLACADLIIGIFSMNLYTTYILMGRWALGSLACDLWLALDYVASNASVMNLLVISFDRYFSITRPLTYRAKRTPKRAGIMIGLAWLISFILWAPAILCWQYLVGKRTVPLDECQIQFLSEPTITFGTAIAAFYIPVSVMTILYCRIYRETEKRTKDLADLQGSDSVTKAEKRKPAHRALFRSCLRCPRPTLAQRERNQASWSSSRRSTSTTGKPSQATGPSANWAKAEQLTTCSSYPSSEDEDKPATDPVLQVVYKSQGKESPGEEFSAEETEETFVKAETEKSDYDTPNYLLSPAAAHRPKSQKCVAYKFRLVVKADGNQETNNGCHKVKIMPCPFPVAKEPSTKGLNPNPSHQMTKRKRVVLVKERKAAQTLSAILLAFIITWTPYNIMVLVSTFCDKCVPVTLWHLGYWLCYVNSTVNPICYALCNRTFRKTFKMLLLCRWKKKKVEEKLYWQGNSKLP
The experiment can be described thus: Accumulation of inositol phosphates in CHO cells. Type of experiment: cell-based. As to conditions: for Effect of ligands on basal activity (accumulation of inositol phosphates as percent of accumulation in the absence of the ligand): M5, ligand 0.1 mM, no carbachol.
Procedure: as §3, §4, §5

Experiment [4] concerns the target T2, M5 muscarinic receptor. Put plainly: Competition with [3H]NMS (equilibrium binding, CHO membranes). The following applies: read-out: Binding Equilibrium Constants (expressed as pKI) (converted). The method, then:
(§1) All radioligand binding experiments were optimized and carried out as described earlier. Briefly, membranes were incubated in 96-well plates at 30° C. in the incubation medium described. […] Dissociation was initiated by addition of atropine to final concentration of 5 Tested ligands in final concentration of 100 μM were added concurrently with atropine. Incubations were terminated by filtration through Whatman GF/C glass fiber filters (Whatman) using a Brandel cell harvester (Brandel, Gaithersburg, Md., USA). Filters were dried in vacuum for 1 h while heated at 80° C. and then solid scintillator Meltilex A was melted on filters (105° C., 90 s) using a hot plate. The filters were cooled and counted in Wallac Microbeta scintillation counter.
(§2) Inhibition constant KI was calculated as: […]

Experiment [5] concerns the target T3, M4 muscarinic receptor (Homo sapiens, UniProt P08173).
T3 construct: host or cells: Chinese hamster ovary cells
T3 sequence (P08173 1-479): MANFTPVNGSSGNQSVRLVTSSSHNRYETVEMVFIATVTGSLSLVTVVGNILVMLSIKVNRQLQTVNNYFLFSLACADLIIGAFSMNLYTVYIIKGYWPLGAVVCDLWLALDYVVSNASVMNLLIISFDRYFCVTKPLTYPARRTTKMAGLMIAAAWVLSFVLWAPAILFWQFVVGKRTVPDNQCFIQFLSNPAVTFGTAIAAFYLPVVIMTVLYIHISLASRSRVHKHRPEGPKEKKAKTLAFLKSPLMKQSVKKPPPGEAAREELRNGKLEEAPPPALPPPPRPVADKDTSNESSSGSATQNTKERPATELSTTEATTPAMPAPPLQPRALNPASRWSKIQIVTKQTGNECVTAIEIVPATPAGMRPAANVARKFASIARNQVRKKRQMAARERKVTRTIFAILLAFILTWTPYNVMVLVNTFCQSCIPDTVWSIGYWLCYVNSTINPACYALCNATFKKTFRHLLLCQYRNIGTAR
Described as above. The following applies: read-out: Binding Equilibrium Constants (expressed as pKI) (converted). The method, then: as §1, §2

Experiment [6] concerns the target T4, M1 muscarinic receptor (Homo sapiens, UniProt P11229).
T4 sequence (P11229 1-460): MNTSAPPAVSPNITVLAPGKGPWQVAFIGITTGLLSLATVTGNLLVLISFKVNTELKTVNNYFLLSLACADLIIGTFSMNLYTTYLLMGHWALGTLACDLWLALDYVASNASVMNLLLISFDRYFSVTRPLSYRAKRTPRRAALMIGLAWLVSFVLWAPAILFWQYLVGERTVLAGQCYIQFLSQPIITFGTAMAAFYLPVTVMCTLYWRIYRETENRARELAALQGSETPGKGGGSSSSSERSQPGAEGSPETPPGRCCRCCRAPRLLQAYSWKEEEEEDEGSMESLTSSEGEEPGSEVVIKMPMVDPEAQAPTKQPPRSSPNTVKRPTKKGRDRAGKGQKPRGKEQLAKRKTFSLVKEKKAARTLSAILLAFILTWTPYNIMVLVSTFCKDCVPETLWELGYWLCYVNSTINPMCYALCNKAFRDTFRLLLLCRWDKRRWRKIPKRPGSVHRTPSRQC
The experiment is described as above. The following applies: for Ki: read-out: Binding Equilibrium Constants (expressed as pKI) (converted). The procedure: as §1, §2

Experiment [7] has as its target T1, M3 muscarinic receptor. The experiment is described as above. The following applies: read-out: Binding Equilibrium Constants (expressed as pKI) (converted). The procedure: as §1, §2
For experiment [8], the target named is T3, M4 muscarinic receptor. Put plainly: Accumulation of inositol phosphates in CHO cells. It is filed as cell-based. As to conditions: for Effect of ligands on basal activity (accumulation of inositol phosphates as percent of accumulation in the absence of the ligand): M4, ligand 0.1 mM, no carbachol.
Procedure: as §3, §4, §5
Experiment [9] deals with T4, M1 muscarinic receptor. The experiment can be described thus: Accumulation of inositol phosphates in CHO cells. Type of experiment: cell-based. As to conditions: ligand 0.1 mM, no carbachol.
Procedure: as §3, §4, §5
In experiment [10] the target is T2, M5 muscarinic receptor. The experiment can be described thus: [3H]NMS saturation binding. The following applies: M5 CHO membranes; binding sites per mg of membrane protein.
Experiment [11] has as its system M1-M5 muscarinic receptors. The experiment can be described thus: Competition with [3H]NMS, statements over all subtypes. It is filed as binding, human. The following applies: versus other subtypes; from pKI, Table 4.

Where a name gives a salt, the structure may show the parent alone.

T1 sequence (P20309 whole entry): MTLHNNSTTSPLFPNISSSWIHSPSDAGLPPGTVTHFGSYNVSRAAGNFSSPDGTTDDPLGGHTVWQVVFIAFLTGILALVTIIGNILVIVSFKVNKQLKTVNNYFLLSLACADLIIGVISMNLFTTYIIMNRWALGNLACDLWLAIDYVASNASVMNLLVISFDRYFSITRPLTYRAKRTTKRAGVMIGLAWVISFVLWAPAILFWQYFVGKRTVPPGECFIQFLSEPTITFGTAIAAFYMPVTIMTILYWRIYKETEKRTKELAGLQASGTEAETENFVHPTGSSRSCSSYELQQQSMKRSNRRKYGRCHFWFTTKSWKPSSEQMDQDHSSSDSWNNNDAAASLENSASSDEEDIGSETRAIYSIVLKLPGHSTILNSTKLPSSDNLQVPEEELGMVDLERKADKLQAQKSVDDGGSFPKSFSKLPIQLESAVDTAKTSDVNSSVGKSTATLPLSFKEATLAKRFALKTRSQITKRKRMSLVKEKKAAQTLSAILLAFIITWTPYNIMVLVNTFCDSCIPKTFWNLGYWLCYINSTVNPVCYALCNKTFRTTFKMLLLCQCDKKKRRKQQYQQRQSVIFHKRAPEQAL

`CCCCc1ccc(C(=O)OCC[N+]2(C)CCCCC2)cc1` [Compound 13b, 2-(N-Piperidineethyl) p-butylbenzoyl ester N-methyl iodide]: in experiment [1], the “functional selectivity of antagonism” value is recorded as “M1/M5 functionally selective”. Further, the “Effect of ligands on basal activity (accumulation of inositol phosphates as percent of accumulation in the absence of the ligand)” value at M3 muscarinic receptor [2] was found to be 104 ± 4%; on M5 muscarinic receptor [3] it was 104 ± 4%; on M4 muscarinic receptor [8] it was 107 ± 4%; on M1 muscarinic receptor [9] it was 104 ± 4%. The Ki on M5 muscarinic receptor [4] is 2.45 µM; on M4 muscarinic receptor [5], 3.98 µM; at M1 muscarinic receptor [6] it was 3.16 µM; on M3 muscarinic receptor [7], 2.04 µM.
On to `CCCCOc1ccc(C(=O)OCCN2CC=CCC2)cc1` [Compound 9a, 2-(1,2,5,6-tetrahydropyridine-N-ethyl)-4-butoxybenzoate hydrochloride], for which the entries for the “Effect of ligands on basal activity (accumulation of inositol phosphates as percent of accumulation in the absence of the ligand)” value at M3 muscarinic receptor [2] and at M4 muscarinic receptor [8] were 100 ± 1% and 100 ± 6%, respectively. Further, the Ki was 12.6 µM on M4 muscarinic receptor [5], 6.31 µM at M1 muscarinic receptor [6] and 7.94 µM on M3 muscarinic receptor [7].
As to `C[N+]1(C)[C@@H]2C[C@@H](OC(=O)[C@H](CO)c3ccccc3)C[C@H]1[C@@H]1O[C@@H]12` [NMS, N-methyl scopolamine], on M5 muscarinic receptor [10], the BMAX is given as 1.0 ± 0.1 pmol/mg.
With `CCCCOc1ccc(C(=O)OCC[N+]2(C)CC=CCC2)cc1` (stereo not drawn) [Compound 10a, 2-(1,2,5,6-tetrahydropyridine-N-ethyl)-4-butoxybenzoate N-methyl iodide], the “basal functional response (in the absence of carbachol)” value in experiment [1] is “lowered basal functional response”. In addition, the “Effect of ligands on basal activity (accumulation of inositol phosphates as percent of accumulation in the absence of the ligand)” value on M3 muscarinic receptor [2] came to 74 ± 3 %; at M5 muscarinic receptor [3], 89 ± 3 %; at M4 muscarinic receptor [8], 74 ± 7 %; at M1 muscarinic receptor [9] it was 83 ± 3 %. In addition, the Ki on M5 muscarinic receptor [4] was 3.16 µM; on M4 muscarinic receptor [5] it was 7.94 µM; at M1 muscarinic receptor [6] it was 2.51 µM; on M3 muscarinic receptor [7], 6.31 µM.
`CCCCc1ccc(C(=O)OCCN2CCCCC2)cc1` [Compound 14b]: in experiment [1], the “functional selectivity of antagonism” value is reported as “M1/M3 functionally selective antagonist”. The “Effect of ligands on basal activity (accumulation of inositol phosphates as percent of accumulation in the absence of the ligand)” value is reported as 103 ± 3% on M3 muscarinic receptor [2], 103 ± 3% at M5 muscarinic receptor [3], 106 ± 1% at M4 muscarinic receptor [8] and 103 ± 3% on M1 muscarinic receptor [9]. For the same molecule, the Ki was 5.01 µM at M5 muscarinic receptor [4], 9.77 µM at M4 muscarinic receptor [5], 3.98 µM at M1 muscarinic receptor [6] and 6.31 µM at M3 muscarinic receptor [7].
For `CCCCCCOc1ccc(C(=O)OCC[N+]2(C)CC=CCC2)cc1` (stereo not drawn) [Compound 10c, 2-(1,2,5,6-tetrahydropyridine-N-ethyl)-4-hexoxybenzoate N-methyl iodide], the “Effect of ligands on basal activity (accumulation of inositol phosphates as percent of accumulation in the absence of the ligand)” value on M3 muscarinic receptor [2] is reported as 101 ± 1%; at M5 muscarinic receptor [3], 101 ± 1%; on M4 muscarinic receptor [8], 100 ± 2%; at M1 muscarinic receptor [9] it was 101 ± 1%. Also, the “higher affinity for the M2 and M5 receptors” value in experiment [11] is reported as “one to three fold”. Also, the results for the Ki at M5 muscarinic receptor [4], on M4 muscarinic receptor [5] and at M3 muscarinic receptor [7] were 0.158 µM, 0.398 µM and 0.398 µM, respectively.
With `C[N+](C)(C)CCOC(N)=O` [carbachol, Carbachol, reference compound], the EMAX at M5 muscarinic receptor [3] (M5 CHO cells, accumulation of inositol phosphates) is on record as 2.5 ± 0.2 fold over basal; on M4 muscarinic receptor [8] (M4 CHO cells, accumulation of inositol phosphates) it was 3.3 ± 0.3 fold over basal.
For the molecule `CCCCc1ccc(C(=O)OCC[N+]2(C)CC=CCC2)cc1` (stereo not drawn) [Compound 10b, 2-(1,2,5,6-tetrahydropyridine-N-ethyl)-4-butylbenzoate N-methyl iodide], the “Effect of ligands on basal activity (accumulation of inositol phosphates as percent of accumulation in the absence of the ligand)” value on M5 muscarinic receptor [3] is given as 90 ± 10%; at M1 muscarinic receptor [9], 98 ± 9%. The Ki at M5 muscarinic receptor [4] was 1.58 µM; at M4 muscarinic receptor [5] it was 3.98 µM; on M1 muscarinic receptor [6], 2.51 µM; on M3 muscarinic receptor [7], 3.98 µM.
`CCCCc1ccc(C(=O)OCCN2CC=CCC2)cc1` [Compound 9b, 2-(1,2,5,6-tetrahydropyridine-N-ethyl)-4-butylbenzoate hydrochloride]: in [1], the “basal functional response (in the absence of carbachol)” value was “lowered basal functional response”. Besides, in experiment [1], the “functional selectivity of antagonism” value is recorded as “M1/M4 functionally selective antagonists”. Also, the “Effect of ligands on basal activity (accumulation of inositol phosphates as percent of accumulation in the absence of the ligand)” value came out at 81 ± 5 % at M3 muscarinic receptor [2], 88 ± 3 % on M5 muscarinic receptor [3], 73 ± 6 % at M4 muscarinic receptor [8] and 85 ± 4 % at M1 muscarinic receptor [9]. For the same molecule, the Ki at M5 muscarinic receptor [4] is 25.1 µM; at M4 muscarinic receptor [5], 25.1 µM; on M1 muscarinic receptor [6], 7.94 µM; on M3 muscarinic receptor [7], 15.8 µM. For the same molecule, the “higher affinity for M1 receptor” value at M1 muscarinic receptor [6] (versus other subtypes, from pKI, Table 4) is “two to three-fold”.
